This is an account of results in paper PMC6746272, “Towards discovery of novel scaffold with potent antiangiogenic activity; design, synthesis of pyridazine based compounds, impact of hinge interaction, and accessibility of their bioactive conformation on VEGFR-2 activities” (Journal of Enzyme Inhibition and Medicinal Chemistry, 2019).

For series [1], the target named is T1, VEGFR-2 (Homo sapiens, UniProt P35968).
T1 construct: purchased Millipore, United Kingdom
As to the kind of experiment: VEGFR-2 kinase inhibition assay (Alpha Screen, phosphotyrosine antibody). It is filed as biochemical. Particulars: for inhibition at 10 µM: read-out: VEGFR-2% inhibition. On the procedure:
The kinase activity of VEGFR-2 was measured by use of a phosphotyrosine antibody with the
Alpha Screen system (PerkinElmer, United States) according to manufacturer’s instructions. Enzyme reactions were performed in 50 mM Tris–HCl pH 7.5, 5 mM MnCl2, 5 mM MgCl2, 0.01% Tween-20 and 2 mM DTT, containing 10 μM ATP, 0.1 μg/mL biotinylated poly-GluTyr (4:1), and 0.1 nM of VEGFR-2 (Millipore, United Kingdom). Prior to catalytic initiation with ATP, the tested compounds at final concentrations ranging from 0 to 100 μg/mL and enzyme were incubated for 5 min at room temperature. […] Plate was incubated in the dark overnight and then read by ELISA Reader (PerkinElmer, United States). Wells containing the substrate and the enzyme without compounds were used as reaction control. Wells containing biotinylated poly-GluTyr (4:1) and enzyme without ATP were used as basal control. Percent inhibition was calculated by the comparison of compounds treated to control incubations.

The test system of series [2] is PDGFRα. The arrangement: method as in PMID 23123015, PMID 23305239. Particulars: read-out: inhibits PDGFRα; cited from earlier work.
Series [3] concerns VEGFR2. Also noted: method as in PMID 23123015, PMID 23305239. Particulars: read-out: inhibits VEGFR2; cited from earlier work.
The test system of series [4] is VEGFR1. Also noted: method as in PMID 23123015, PMID 23305239. Particulars: read-out: inhibits VEGFR1; cited from earlier work.
In series [5] the test system is PDGFRβ. The arrangement: method as in PMID 23123015, PMID 23305239. Particulars: read-out: inhibits PDGFRβ; cited from earlier work.
In series [6] the test system is VEGFR3. The arrangement: method as in PMID 23123015, PMID 23305239. Particulars: read-out: inhibits VEGFR3; cited from earlier work.
Series [7] relates to NCI 56 cell line panel. As to the kind of experiment: NCI primary anticancer assay, mean over panel (SRB). In kind it is cell-based, human. Particulars: 10–5 M. On the procedure: The selected compounds were evaluated at primary anticancer assay against a panel of 56 cancer lines at concentration 10–5 M. The human tumour cell lines were derived from nine different cancer types: leukaemia, melanoma, lung, colon, CNS, ovarian, renal, prostate, and breast cancers.
A 48 h drug exposure protocol was used and sulforhodamine B (SRB) protein assay was applied to estimate the cell viability and growth. The mean percentages GI (GI%) of the tested compounds over the full panel of cell lines are illustrated in Figure 4.
The cytotoxicity assays were performed at NCI, Bethesda, United States (against 56 cell lines). […]
Experimental drugs were solubilised in dimethyl sulfoxide at 400-fold the desired final maximum test concentration and stored frozen prior to use. […] Bound stain was subsequently solubilised with 10 mM trizma base, and the absorbance was read on an automated plate reader at a wavelength of 515 nm. […] Using the seven absorbance measurements [time zero (Tz), control growth (C), and test growth in the presence of drug at the five concentration levels (Ti)], the percentage growth was calculated at each of the drug concentration levels. Percentage GI was calculated as: [(Ti – Tz)/(C – Tz)] × 100 for concentrations for which Ti ≥ Tz [(Ti – Tz)/Tz] × 100 for concentrations for which Ti < Tz.

Series [8] deals with HUVEC cell line. As to the kind of experiment: In vitro HUVEC anti-proliferative assay (alamar Blue). It is filed as cell-based, human. Particulars: for HUVEC proliferation (%): 72 h, Mean ± SD, n = 3. How it is done: Compounds 8c, 8f, 15, 18b, and 18c were selected to be tested for their ability to in vitro inhibit VEGF-induced HUVEC cell line proliferation, using doxorubicin as a control.
The assay was performed at single dose concentration of 10 µM, where HUVEC, human (Life Technologies # C-003-5C) served as the cells’ source, in Medium 200 (Life Technologies # M-200–500), with large vessel endothelial supplement (LVES) (Life Technologies # A14608-01) and Pen-strep (Hyclone # SV30010). Alamar Blue (Life Technologies # DAL1025) was used as the fluorescent reagent.
HUVEC cells were cultured in Medium 200 with 2% LVES and 1% Pen-strep. To perform the proliferation assay, HUVEC cells were seeded at 5000 cells/50 μl/well in a 96-well black clear bottom tissue culture plate. Cells were incubated at 37 °C and 5% CO2 overnight to allow them to recover and reattach. Next day cells were treated with test compounds for 72 h. After treatment, cell proliferation was measured by Fluorescent quantitation of alamar Blue reagent. The alamar Blue assay incorporates a fluorometric/colorimetric growth indicator based on detection of metabolic activity. Specifically, resazurin, the active ingredient in the alamar Blue reagent, is blue in colour and virtually non-fluorescent. Upon entering cells, resazurin is reduced to resorufin, a compound that is red in colour and highly fluorescent. Continued cell growth maintains a reduced environment, therefore increasing the overall fluorescence and colour of the media surrounding cells. […] To perform the alamar Blue assay, […] of alamar Blue reagent was added to each well and the plate was incubated at 37 °C for an additional 2 h. Fluorescence intensity was measured at an excitation of 530 nm and an emission of 590 nm using a BioTek SynergyTM 2 microplate reader.
Cell proliferation assays were performed in triplicate at each concentration. The fluorescent intensity data were analysed using the computer software, Graphpad Prism. In the absence of the compound, the fluorescent intensity (Ft) in each data set was defined as 100%. In the absence of cells, the fluorescent intensity (Fb) in each data set was defined as 0%. The percent cell in the presence of each compound was calculated according to the following equation: % Cell = (F – Fb)/(Ft – Fb), where F = the fluorescent intensity in the presence of the compound, Fb = the fluorescent intensity in the absence of cells, and Ft = the fluorescent intensity in the absence of the compound.
A general note: Resazurin is reduced to fluorescent resorufin, in cell work by metabolically active cells.

The mark [9] stands for this setting: single concentration of 10 µM, Mean ± SD, n = 3.
Where [10] appears, read: 5 concentrations 1 nM - 10 µM, Mean ± SD, n = 3, read-out: VEGFR-2 IC50.

Like-named read-outs stand apart in the source and are kept apart here.

T1 sequence (P35968 20-1356): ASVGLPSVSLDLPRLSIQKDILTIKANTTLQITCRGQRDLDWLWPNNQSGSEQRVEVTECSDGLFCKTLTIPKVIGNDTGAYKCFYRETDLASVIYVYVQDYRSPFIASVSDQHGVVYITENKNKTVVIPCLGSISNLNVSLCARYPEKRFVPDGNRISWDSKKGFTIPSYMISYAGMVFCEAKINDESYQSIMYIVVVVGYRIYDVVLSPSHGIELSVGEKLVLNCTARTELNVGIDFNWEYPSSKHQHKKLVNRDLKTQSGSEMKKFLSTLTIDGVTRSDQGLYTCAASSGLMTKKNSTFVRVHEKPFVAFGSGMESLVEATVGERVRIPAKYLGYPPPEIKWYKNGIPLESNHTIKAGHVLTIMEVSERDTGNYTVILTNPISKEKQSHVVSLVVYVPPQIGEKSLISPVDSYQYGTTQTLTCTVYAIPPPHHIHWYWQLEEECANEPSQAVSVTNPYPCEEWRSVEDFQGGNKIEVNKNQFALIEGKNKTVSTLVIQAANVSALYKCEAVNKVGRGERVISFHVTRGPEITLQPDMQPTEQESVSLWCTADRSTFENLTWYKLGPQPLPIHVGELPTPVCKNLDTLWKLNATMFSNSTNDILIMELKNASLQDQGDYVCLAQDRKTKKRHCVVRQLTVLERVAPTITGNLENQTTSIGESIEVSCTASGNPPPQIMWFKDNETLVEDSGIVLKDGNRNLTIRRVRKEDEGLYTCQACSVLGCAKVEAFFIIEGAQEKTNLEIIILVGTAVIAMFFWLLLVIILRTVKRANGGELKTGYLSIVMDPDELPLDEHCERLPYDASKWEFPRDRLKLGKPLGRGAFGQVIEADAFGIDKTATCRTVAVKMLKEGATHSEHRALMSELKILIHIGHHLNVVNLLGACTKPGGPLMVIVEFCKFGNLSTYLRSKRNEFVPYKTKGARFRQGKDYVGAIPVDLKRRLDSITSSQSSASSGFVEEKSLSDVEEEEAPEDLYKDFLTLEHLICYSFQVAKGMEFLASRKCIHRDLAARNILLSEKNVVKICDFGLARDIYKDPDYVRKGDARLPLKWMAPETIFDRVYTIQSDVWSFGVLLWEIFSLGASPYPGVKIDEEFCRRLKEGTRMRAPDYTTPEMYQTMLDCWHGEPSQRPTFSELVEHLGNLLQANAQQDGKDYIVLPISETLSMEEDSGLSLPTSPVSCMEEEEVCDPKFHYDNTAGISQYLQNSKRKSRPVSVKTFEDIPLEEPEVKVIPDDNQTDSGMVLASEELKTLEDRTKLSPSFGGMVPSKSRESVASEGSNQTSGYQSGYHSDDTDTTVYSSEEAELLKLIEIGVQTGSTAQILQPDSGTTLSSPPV

On to “1-[3,4-Dichlorophenyl)-3–(6-morpholino-[1, 2, 4]triazolo[4,3-b]pyridazin-3-yl]urea [Compound 5a]”, for which the VEGFR-2% inhibition in series [1] (setting [9]) is 5.07 ± 0.61%.

In series [1] (setting [9]), “1-[4-((6-Chloropyridazin-3-yl)amino)phenyl)-3–(3,4-dichlorophenyl]urea [Compound 11d]” registered a VEGFR-2% inhibition of 11.93 ± 2.25%.

As to “1-[4-Chloro-3-(trifluoromethyl)phenyl)-3–(3-(6-oxo-1,6-dihydropyridazin-3-yl)phenyl]urea [Compound 8e]”, the VEGFR-2% inhibition in series [1] (setting [9]) stood at 27.03 ± 3.29%.

In turn, `O=C(Nc1ccc(Cl)c(Cl)c1)Nc1nnc2ccc(Cl)nn12` [Compound 3] displayed a melting point of 173 to 175 °C. For the same compound, the inhibition at 10 µM in series [1] (setting [9]) stood at 3.06 ± 0.45%.

As to `Cc1cc(C(=O)Nc2cc(Oc3ccc4nc(NC(=O)C5CC5)cn4n3)ccc2C)n(C)n1` [TAK-593], the IC50 in series [2] is 4.3 nM; in series [3], 0.95 nM; in [4] it was 3.2 nM; in series [5], 13 nM; in [6], 1.1 nM.

With `O=C(Nc1ccc(Oc2ccc(=O)[nH]n2)cc1)Nc1ccc(Cl)c(C(F)(F)F)c1` [Compound 18b, 1–(4-Chloro-3-(trifluoromethyl)phenyl)-3–(4-((6-oxo-1,6-dihydropyridazin-3-yl)oxy)phenyl)urea], in [7], the “inhibitory activity against most of the test cell lines (in words)” value is “weak inhibitory activity”. In addition, the IC50 in series [1] (setting [10]) was 60.7 ± 0.03 nM. In [8] (10 μM), the “anti-proliferative activity against HUVEC (in words)” value is reported as “potent anti-proliferative activity”. Also, in series [8] (10 µM), the “HUVEC proliferation (%)” value is 2.13 ± 0.425%.

Consider `O=C(Nc1ccc(-c2ccc(=O)[nH]n2)cc1)Nc1ccc(Cl)c(C(F)(F)F)c1` [Compound 8c], for which the IC50 in series [1] (setting [10]) amounted to 1300 ± 140 nM. The “HUVEC proliferation (%)” value in series [8] (10 µM) is reported as 14.75 ± 0.059%.

In turn, “1-[3-Methoxyphenyl)-3–(6-morpholino-[1, 2, 4]triazolo[4,3-b]pyridazin-3-yl]urea [Compound 5c]” had a VEGFR-2% inhibition in [1] (setting [9]) of 13.10 ± 1.71%.

In [1] (setting [9]), “1-[4-Chloro-3-(trifluoromethyl)phenyl)-3–(6-morpholino-[1, 2, 4]triazolo[4,3-b]pyridazin-3-yl]urea [Compound 5b]” returned a VEGFR-2% inhibition of 7.07 ± 1.11%.

For `CN[C@@H]1C[C@H]2O[C@@](C)([C@@H]1OC)n1c3ccccc3c3c4c(c5c6ccccc6n2c5c31)C(=O)NC4` [Strausporine, staurosporine, reference compound], in series [1], the inhibition at 10 µM came out at 90.5 ± 4.53%.

For the compound `COc1ccc(Nc2ccc(NC(=O)Nc3ccc(Cl)c(C(F)(F)F)c3)cc2)nn1` [Compound 15, 1–(4-Chloro-3-(trifluoromethyl)phenyl)-3–(4-((6-methoxypyridazin-3-yl)amino)phenyl) urea], the IC50 came out at 1400 ± 120 nM in [1] (setting [10]) and 1410 nM in series [1] (unit given as nm, read-out: VEGFR-2 IC50 (nm)). In [8] (10 µM), the “HUVEC proliferation (%)” value turned out to be 64.50 ± 2.017%. Further, in series [8] (Homo sapiens, HUVEC, 10 µM, read-out: growth inhibition (GI) percent against HUVEC cell line), the inhibition at 10 µM was found to be 35.5%.

Broadly, the melting point is the temperature, or range, at which the solid turns liquid. The inhibition is the relative decrease from the control value, in per cent.
